The record followed here is ChEMBL document CHEMBL1201862, “PubChem BioAssay data set” (2004).

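Compound exposure: 48 hours, 5 concentrations, 96-well plates. At the GI50, growth is halved.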 Calls of active or inactive are those of the source. Cut-off read from the data, not from the text of the source: active = GI50 up to about 1.1 µM and inactive = higher. A value given as a limit tells only on which side of the number the result lay.

Among the test systems are HOP-62; 786-0; OVCAR-8; PC-3; SK-MEL-2; CAKI-1; SF-268; SK-OV-3; BT-549; MDA-MB-435; ACHN; UACC-257; HCC 2998; SW-620; SN12C; HOP-92; RXF 393; T47D; SNB-75; Hs-578T.
What all share (experiment): inhibition of tumour cell growth, NCI panel, 48 h

For `CC1CNC(NS(=O)(=O)c2cc(C(=O)Nc3ccccc3)c(Cl)cc2S)=NN1` (configuration not stated), the GI50 in the experiment with HOP-62 is 43.9 µM (inactive); with 786-0, 92.3 µM (inactive); in the experiment with OVCAR-8 it was 30.8 µM (inactive); in the experiment on PC-3, 29 µM (inactive); with SK-MEL-2, 22.2 µM (inactive); with CAKI-1, > 100 µM (inactive). Besides, the GI50 in the experiment on SF-268 was 26.1 µM (inactive); with SK-OV-3, 81.5 µM (inactive); in the experiment with BT-549 it was 97.3 µM (inactive); with MDA-MB-435 it was 17.7 µM (inactive); in the experiment with ACHN, 69 µM (inactive); in the experiment on UACC-257 it was > 100 µM (inactive). The values for the GI50 in the experiment with HCC 2998, in the experiment on SW-620 and in the experiment on SN12C were 46.1 µM (inactive), 40.6 µM (inactive) and > 100 µM (inactive), respectively.

As to `C[n+]1ccc2/c(=C\C#N)c3ccccc3n21`, the GI50 was 30.7 µM (inactive) in the experiment with HOP-62; 52.2 µM (inactive) with 786-0; 36.6 µM (inactive) with OVCAR-8; 25.9 µM (inactive) in the experiment with PC-3; 30.8 µM (inactive) in the experiment with SK-MEL-2; > 100 µM (inactive) in the experiment with CAKI-1. The GI50 with HOP-92 was 22.4 µM (inactive); in the experiment on SF-268, 32.2 µM (inactive); with SK-OV-3, 30.6 µM (inactive); in the experiment with BT-549, 16.6 µM (inactive); in the experiment with MDA-MB-435, 23.3 µM (inactive); in the experiment on ACHN, 39.2 µM (inactive). For the same compound, the GI50 is < 0.01 µM (active) with UACC-257; 19 µM (inactive) with HCC 2998; 38.1 µM (inactive) in the experiment with RXF 393; 35.1 µM (inactive) in the experiment on SW-620; 27.9 µM (inactive) with SN12C; 5.65 µM (inactive) with T47D.

Take `COc1ccc(/C=N/NC(=O)C2=C(N)N(c3ccccc3)C(=C(C#N)C#N)S2)cc1`: the GI50 in the experiment with HOP-62 is 53.8 µM (inactive); in the experiment with 786-0, 62.5 µM (inactive); in the experiment with OVCAR-8, 93.8 µM (inactive); with PC-3 it was > 100 µM (inactive); in the experiment with HOP-92, 39.3 µM (inactive); in the experiment on SF-268, > 100 µM (inactive). Also, the GI50 is 57 µM (inactive) in the experiment on SK-OV-3; > 100 µM (inactive) in the experiment with BT-549; 16 µM (inactive) in the experiment with SNB-75; > 100 µM (inactive) with MDA-MB-435; > 100 µM (inactive) in the experiment with Hs-578T; > 100 µM (inactive) with ACHN. For the same compound, the GI50 with UACC-257, in the experiment with HCC 2998, in the experiment on SW-620 and in the experiment with SN12C was > 100 µM (inactive) in each case.

On to `C[C@H]1C[C@H]2[C@@H]3C(C)(C)O[C@]4(O)C(=O)[C@]5(O)[C@@H](C)CC[C@H]1[C@]25C(=O)[C@]34C`, for which the GI50 is 47.1 µM (inactive) in the experiment with HOP-62; 75.5 µM (inactive) in the experiment with 786-0; 63.7 µM (inactive) with OVCAR-8; 44.1 µM (inactive) in the experiment with PC-3; 31.3 µM (inactive) in the experiment with SK-MEL-2; 39.4 µM (inactive) with CAKI-1. Also, the GI50 in the experiment with HOP-92 is 8.61 µM (inactive); with SF-268, 45.7 µM (inactive); in the experiment on SK-OV-3 it was 82.4 µM (inactive); in the experiment on MDA-MB-435, 32.8 µM (inactive); with Hs-578T, 37.5 µM (inactive); in the experiment with ACHN, 27.3 µM (inactive). Besides, the GI50 was 48.5 µM (inactive) in the experiment with UACC-257, 79.6 µM (inactive) in the experiment with SW-620, 80.2 µM (inactive) in the experiment with SN12C and 25.2 µM (inactive) in the experiment with T47D.

As to `CNC(=O)NCCN1CC2CCC(CC2)C1`, the GI50 with HOP-62, with 786-0, in the experiment on OVCAR-8, in the experiment with PC-3, in the experiment on SK-MEL-2 and with CAKI-1 was > 10 µM (inactive) in each case. In addition, the GI50 in the experiment with SF-268, in the experiment on SK-OV-3, with SNB-75, with MDA-MB-435, in the experiment on Hs-578T and with ACHN was > 10 µM (inactive) in each case. Moreover, the GI50 in the experiment with UACC-257, in the experiment with HCC 2998, with RXF 393, with SW-620, in the experiment on SN12C and with T47D was > 10 µM (inactive) in each case.

For `COc1ccc2c(c1)c1c3c(ccc4ncn2c43)N(CCN(C)C)CCN=1`, the GI50 is 0.362 µM (active) in the experiment on HOP-62; 0.19 µM (active) in the experiment on 786-0; 0.284 µM (active) in the experiment on OVCAR-8; 0.357 µM (active) in the experiment on PC-3; 1.03 µM (active) with SK-MEL-2; 1.71 µM (inactive) in the experiment with CAKI-1. Further, the GI50 with HOP-92 is 1.49 µM (inactive); in the experiment with SF-268, 0.836 µM (active); in the experiment with SK-OV-3 it was 0.908 µM (active); with SNB-75, 0.764 µM (active); with MDA-MB-435, 0.378 µM (active); in the experiment with Hs-578T, 1.06 µM (active). Further, the GI50 in the experiment with ACHN is 0.701 µM (active); in the experiment with UACC-257, 1.85 µM (inactive); in the experiment with HCC 2998 it was 0.422 µM (active); in the experiment with RXF 393, 1.12 µM (active); in the experiment with SW-620, 0.146 µM (active); in the experiment on SN12C, 0.316 µM (active). In the experiment on T47D, the GI50 was 1.52 µM (inactive).

As to `CCCCn1c2c(n(CCCC)c1=[Se])-c1c(n(CCCC)c(=[Se])n1CCCC)S[Se][Se]S2`, the GI50 in the experiment on HOP-62 was 13.7 µM (inactive); with 786-0 it was 29.4 µM (inactive); with OVCAR-8, 16.9 µM (inactive); with PC-3 it was 14.9 µM (inactive); with SK-MEL-2, 18 µM (inactive); with CAKI-1, 5.3 µM (inactive). For the same compound, the GI50 in the experiment on HOP-92 is 2.01 µM (inactive); with SF-268, 32.7 µM (inactive); in the experiment on SK-OV-3, 24.5 µM (inactive); in the experiment with BT-549 it was 27.7 µM (inactive); in the experiment on SNB-75, 20.6 µM (inactive); in the experiment on MDA-MB-435 it was 49.9 µM (inactive). In addition, the GI50 is 18.7 µM (inactive) in the experiment with Hs-578T; 12 µM (inactive) with ACHN; 32.8 µM (inactive) in the experiment with UACC-257; 30.4 µM (inactive) in the experiment on HCC 2998; 21.8 µM (inactive) in the experiment with RXF 393; 6.01 µM (inactive) with SW-620. Besides, the GI50 in the experiment on SN12C is 24.6 µM (inactive).

Take `O=C1c2cc(Cc3ccccc3)c(=O)c(Cc3ccccc3)cc2C(=O)c2cc(Cc3ccccc3)c(=O)c(Cc3ccccc3)cc21`: the GI50 with HOP-62, in the experiment with 786-0, in the experiment on OVCAR-8, with PC-3, in the experiment on SK-MEL-2 and in the experiment on CAKI-1 was > 100 µM (inactive) each time. Besides, the GI50 in the experiment on HOP-92, in the experiment on SF-268, with BT-549, with SNB-75, with MDA-MB-435 and in the experiment with Hs-578T was > 100 µM (inactive) each time. For the same compound, the GI50 in the experiment with ACHN is > 100 µM (inactive); in the experiment on UACC-257 it was > 100 µM (inactive); with HCC 2998 it was > 100 µM (inactive); in the experiment with RXF 393, 24.4 µM (inactive); in the experiment on SW-620, > 100 µM (inactive); with SN12C, > 100 µM (inactive).

For the compound `CN(C)C(=O)Nc1cc2c3c(c1)CCCN3CCC2`, the GI50 with HOP-62, with 786-0, in the experiment with OVCAR-8, with PC-3, with SK-MEL-2 and in the experiment with CAKI-1 was > 10 µM (inactive) in each case. For the same compound, the GI50 with HOP-92, in the experiment with SF-268, with SK-OV-3, in the experiment on SNB-75, with MDA-MB-435 and in the experiment with Hs-578T was > 10 µM (inactive) in each case. Further, the GI50 in the experiment with ACHN, in the experiment on UACC-257, in the experiment on HCC 2998, in the experiment with RXF 393, in the experiment on SW-620 and with SN12C was > 10 µM (inactive) each time. Also, in the experiment with T47D, the GI50 is > 10 µM (inactive).

Regarding `O=C1NC(Cc2c[nH]c3ccccc23)C(=O)N2C(C3CCCCC3)c3[nH]c4ccccc4c3C[C@@H]12` (some centres not stated), the GI50 in the experiment on HOP-62 was 18.2 µM (inactive); in the experiment with 786-0, 11.4 µM (inactive); in the experiment with OVCAR-8, 14.6 µM (inactive); in the experiment on PC-3, 7.05 µM (inactive); with SK-MEL-2, 14.4 µM (inactive); in the experiment on CAKI-1, 18.3 µM (inactive). In addition, the GI50 was 15.4 µM (inactive) with HOP-92; 13.1 µM (inactive) with SF-268; 14.9 µM (inactive) in the experiment with BT-549; 11 µM (inactive) in the experiment with MDA-MB-435; 2.18 µM (inactive) in the experiment on Hs-578T; 17.7 µM (inactive) in the experiment on ACHN. The GI50 in the experiment with UACC-257 is 12.1 µM (inactive); in the experiment with RXF 393, 5.98 µM (inactive); with SW-620, 15.7 µM (inactive); in the experiment on SN12C it was 8.26 µM (inactive).

As for `C[n+]1c(-c2ccc(/C=N/NC(=O)C(=O)N/N=C/c3ccc(-c4cn5ccccc5[n+]4C)cc3)cc2)cn2ccccc21`, the GI50 in the experiment with HOP-62, with 786-0, in the experiment on OVCAR-8, with PC-3, in the experiment with SK-MEL-2 and with CAKI-1 was > 100 µM (inactive) each time. The GI50 in the experiment on HOP-92, in the experiment on SK-OV-3, in the experiment on BT-549, in the experiment with SNB-75, in the experiment on MDA-MB-435 and in the experiment on Hs-578T was > 100 µM (inactive) throughout. In addition, the GI50 with ACHN, in the experiment on UACC-257, with HCC 2998, in the experiment with RXF 393, in the experiment with SW-620 and in the experiment on SN12C was > 100 µM (inactive) in each case.
